≈ marks a conversion by molar mass, not a printed value. Calls of active or inactive are those of the source. The calls are words filed in the database; no cut-off is given here.
How the values were obtained:
[1] = Lipophilicity, logD of compound in 1-Octanol/PBS at pH 7.4 by LC-MS/MS method; assay type: physicochemical
[2] = tested on: Phosphatidylinositol 4,5-bisphosphate 3-kinase catalytic subunit alpha isoform (Homo sapiens), P42336 [H1047R]; assay: Inhibition of PI3Kalpha H1047R mutant in human HCC1954 cells assessed as reduction in PRAS40 phosphorylation after 24 hrs by electrochemiluminescent assay
[3] = Apparent permeability across apical to basolateral side in MDCK cells at 10 uM measured upto 180 mins by LC-MS/MS method; assay type: ADME, cell-based, Canis lupus familiaris; details: dog
[4] = tested on: Phosphatidylinositol 4,5-bisphosphate 3-kinase catalytic subunit alpha isoform (Homo sapiens), P42336 [H1047R]; assay: Induction of P110alpha H1047R mutant degradation in human HCC1954 cells at 0.012 to 1 uM after 24 hrs; assay type: cell-based; details: dose 0.012-1 µM
Homo sapiens [5] = species on record: Homo sapiens; assay: Selectivity ratio of Ki for PI3Kdelta (unknown origin) to Ki for PI3Kalpha (unknown origin)
[6] = Kinetic solubility of the compound at pH 7.4; assay type: physicochemical; details: buffer, read-out: Kinetic_solubility
[7] = Clearance in Sprague-Dawley rat plasma at 1 mg/kg, iv measured upto 8 hrs by LC-MS/MS analysis; assay type: ADME, organism-based
[8] = molecular target: T1, Phosphatidylinositol 4,5-bisphosphate 3-kinase catalytic subunit delta isoform (Homo sapiens) (UniProt O00329); assay: Inhibition of PI3Kdelta in human B-cells assessed as reduction in CD69 expression preincubated for 1 hr followed by IgM stimulation for 18 hrs by flow cytometry analysis; assay type: cell-based; details: B-cell
T1 sequence (whole entry): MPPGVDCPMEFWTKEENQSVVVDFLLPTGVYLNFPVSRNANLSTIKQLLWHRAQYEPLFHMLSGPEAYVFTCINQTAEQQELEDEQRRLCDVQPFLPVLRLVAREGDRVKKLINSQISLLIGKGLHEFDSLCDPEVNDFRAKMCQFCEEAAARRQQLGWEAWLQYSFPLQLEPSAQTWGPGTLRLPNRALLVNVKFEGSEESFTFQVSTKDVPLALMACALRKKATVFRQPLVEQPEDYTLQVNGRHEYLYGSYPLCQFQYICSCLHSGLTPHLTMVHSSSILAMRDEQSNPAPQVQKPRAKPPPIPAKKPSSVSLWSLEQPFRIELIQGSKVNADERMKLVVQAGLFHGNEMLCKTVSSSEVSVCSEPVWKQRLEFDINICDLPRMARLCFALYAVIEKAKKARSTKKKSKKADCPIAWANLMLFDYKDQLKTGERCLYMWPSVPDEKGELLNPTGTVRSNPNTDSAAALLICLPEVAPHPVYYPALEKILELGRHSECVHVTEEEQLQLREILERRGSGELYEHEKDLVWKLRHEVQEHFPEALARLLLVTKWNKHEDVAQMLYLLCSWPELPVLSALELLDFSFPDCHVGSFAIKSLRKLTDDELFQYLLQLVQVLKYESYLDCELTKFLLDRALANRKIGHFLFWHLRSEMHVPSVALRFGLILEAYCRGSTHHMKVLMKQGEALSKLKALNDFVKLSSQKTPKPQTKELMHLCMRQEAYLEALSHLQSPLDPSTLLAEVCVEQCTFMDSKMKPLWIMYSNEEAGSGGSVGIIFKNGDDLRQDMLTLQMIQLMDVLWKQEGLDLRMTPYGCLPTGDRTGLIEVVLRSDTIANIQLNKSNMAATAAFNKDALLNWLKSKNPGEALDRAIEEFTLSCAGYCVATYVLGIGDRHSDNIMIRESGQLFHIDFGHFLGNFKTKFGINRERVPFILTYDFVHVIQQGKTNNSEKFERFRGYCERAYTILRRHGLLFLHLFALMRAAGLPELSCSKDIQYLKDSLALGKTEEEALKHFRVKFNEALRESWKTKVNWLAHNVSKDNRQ

Homo sapiens [9] = species on record: Homo sapiens; assay: Selectivity ratio of IC90 for inhibition of PI3Kdelta in human B-cells assessed as reduction in CD69 expression to EC50 for inhibition of PI3Kalpha H1047R mutant in human HCC1954 cells; assay type: cell-based
[10] = Oral bioavailability in Sprague-Dawley rat plasma at 5 mg/kg measured upto 8 hrs by LC-MS/MS method; assay type: ADME, organism-based
[11] = molecular target: Phosphatidylinositol 4,5-bisphosphate 3-kinase catalytic subunit alpha isoform (Homo sapiens, UniProt P42336, H1047R)
Homo sapiens [12] = species on record: Homo sapiens; assay: Selectivity ratio of EC50 for PI3Kalpha H1047R mutant in human HCC1954 cells assessed as reduction in PRAS40 phosphorylation to EC50 for wild type PI3Kalpha in human HDQ-P1 cells assessed as reduction in PRAS40 phosphorylation; assay type: cell-based
[13] = molecular target: T2, Phosphatidylinositol 4,5-bisphosphate 3-kinase catalytic subunit alpha isoform (Homo sapiens, UniProt P42336); assay: Inhibition of PI3Kalpha in human HDQ-P1 cells assessed as reduction in PRAS40 phosphorylation after 24 hrs by electrochemiluminescent assay; assay type: cell-based
[14] = molecular target: T2, Phosphatidylinositol 4,5-bisphosphate 3-kinase catalytic subunit alpha isoform; assay: Inhibition of PI3Kalpha (unknown origin) using PIP2:3PS as substrate in presence of ATP measured after 120 mins by ADP-Glo assay
[15] = Oral bioavailability in Sprague-Dawley rat plasma at 3 mg/kg measured upto 8 hrs by LC-MS/MS method; assay type: ADME, organism-based

Chain of Phosphatidylinositol 4,5-bisphosphate 3-kinase catalytic subunit alpha isoform (Homo sapiens, UniProt P42336, H1047R) (P42336 whole entry H1047R, canonical isoform): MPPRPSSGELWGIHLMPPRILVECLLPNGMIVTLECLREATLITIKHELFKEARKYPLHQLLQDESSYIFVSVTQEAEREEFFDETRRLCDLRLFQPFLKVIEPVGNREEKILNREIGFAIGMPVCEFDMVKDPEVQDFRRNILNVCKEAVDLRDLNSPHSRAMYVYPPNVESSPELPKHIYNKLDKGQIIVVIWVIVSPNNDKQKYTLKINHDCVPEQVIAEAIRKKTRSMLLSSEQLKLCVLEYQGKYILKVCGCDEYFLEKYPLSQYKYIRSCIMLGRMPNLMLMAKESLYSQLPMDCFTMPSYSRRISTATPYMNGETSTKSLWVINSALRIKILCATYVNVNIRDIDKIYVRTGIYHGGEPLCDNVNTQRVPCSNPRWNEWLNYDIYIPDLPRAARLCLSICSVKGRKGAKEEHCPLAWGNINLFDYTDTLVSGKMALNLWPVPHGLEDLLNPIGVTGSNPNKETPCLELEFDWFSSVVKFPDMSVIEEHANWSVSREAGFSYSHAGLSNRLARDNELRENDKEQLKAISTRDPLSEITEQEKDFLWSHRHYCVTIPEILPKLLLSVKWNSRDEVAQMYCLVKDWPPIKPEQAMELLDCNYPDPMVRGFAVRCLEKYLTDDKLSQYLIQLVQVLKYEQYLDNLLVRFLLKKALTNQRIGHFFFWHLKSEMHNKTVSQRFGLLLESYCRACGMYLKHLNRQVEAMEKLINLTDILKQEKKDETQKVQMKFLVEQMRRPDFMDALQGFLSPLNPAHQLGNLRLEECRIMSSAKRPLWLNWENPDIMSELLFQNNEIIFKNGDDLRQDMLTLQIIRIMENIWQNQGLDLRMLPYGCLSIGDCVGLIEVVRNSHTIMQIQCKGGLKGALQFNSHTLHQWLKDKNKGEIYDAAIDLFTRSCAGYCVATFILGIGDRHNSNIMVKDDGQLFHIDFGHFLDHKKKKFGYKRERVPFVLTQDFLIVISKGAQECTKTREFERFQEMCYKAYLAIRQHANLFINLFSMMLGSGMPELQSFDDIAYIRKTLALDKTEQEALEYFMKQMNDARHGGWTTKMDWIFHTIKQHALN
Chain of Phosphatidylinositol 4,5-bisphosphate 3-kinase catalytic subunit alpha isoform (Homo sapiens), P42336 [H1047R] (P42336 whole entry H1047R, canonical isoform): as above
T2 sequence (P42336 whole entry, canonical isoform): as the sequence (P42336 whole entry H1047R, canonical isoform) above, with R1047H counted along it

Compound | logD [1] | inhibition [2] | Papp A→B at 3 h, 10 µM [3] [×10⁻⁶ cm/s] | Activity [4] | Ratio Ki (Homo sapiens [5]) | solubility kinetic [6] [µM] | clearance [7] [mL/min/kg] | IC90 [8] [µM] | bioavailability [10] [%] | EC50 [11] [µM] | EC50 [13] [µM] | Ki [14] [µM] | bioavailability [15] [%] | Selectivity ratio (Homo sapiens [9]) | Ratio EC50 (Homo sapiens [12])
Cc1nc(-c2cn3c(n2)-c2ccc(-c4cnn(C(C)(C)C(N)=O)c4)cc2OCC3)n(C(C)C)n1 [TASELISIB] | 2.3 |  |  |  |  |  |  | 0.0031 |  |  |  |  |  |  | 
NC(=O)[C@@H](Nc1ccc2c(c1)OCCn1cc(N3C(=O)OC[C@H]3C(F)(F)F)nc1-2)C1CC1 | 1.2 |  | 1.1 |  | 285 |  | 94 |  |  | 0.052 |  | 0.0001 | 98 |  | 1.1
NC(=O)[C@@H](Nc1ccc2c(c1)OCCn1cc(N3C(=O)OC[C@H]3C(F)F)nc1-2)C1CC1 | 1.2 |  | 3.2 | Active |  |  | 67 | 0.307 | 41 | 0.028 |  |  |  |  | 
CC(C)n1ncnc1-c1cn2c(n1)-c1ccc(O[C@@H](C)C(N)=O)cc1OCC2 | 1.9 |  |  |  |  |  |  | 0.147 |  |  |  |  |  |  | 

More lines, main results first:

logD [1] | inhibition [2] | Papp A→B at 3 h, 10 µM [3] [×10⁻⁶ cm/s] | Activity [4] | Ratio Ki (Homo sapiens [5]) | solubility kinetic [6] [µM] | clearance [7] [mL/min/kg] | IC90 [8] [µM] | bioavailability [10] [%] | EC50 [11] [µM] | EC50 [13] [µM] | Ki [14] [µM] | bioavailability [15] [%] | Compound | Selectivity ratio (Homo sapiens [9]) | Ratio EC50 (Homo sapiens [12])
0.8 | Active | 2.6 | Active | 46 | 159 (≈ 66.1 µg/mL) |  |  |  |  |  |  |  | NC(=O)[C@@H]1CCCN1c1ccc2c(c1)OCCn1cc(N3C(=O)OC[C@H]3CF)nc1-2 |  | 
1.3 | Active | 4.3 | Active | 34 | 11 (≈ 4.77 µg/mL) | 41 | 0.103 | 35 |  |  |  |  | NC(=O)[C@@H]1CCCN1c1ccc2c(c1)OCCn1cc(N3C(=O)OC[C@H]3C(F)F)nc1-2 | 6.4 | 
0.4 |  | 0.3 |  | 13 | 143 (≈ 56.8 µg/mL) | 27 |  | 9 | 0.063 | 0.327 | 0.000355 |  | NC(=O)[C@@H]1CCCN1c1ccc2c(c1)OCCn1cc(N3CC[C@H](O)C3=O)nc1-2 |  | 5.2
